# Key:
# dog [1] = settings: Subchronic oral toxicity in nonrodent, beagle, Feed, dose end: 90 day
# rat [2] = settings: Prenatal developmental toxicity study, wistar, Oral, Gavage/Intubation, dose end: 15 GD
# rat [3] = settings: Subchronic oral toxicity in rodents, sprague dawley, Feed, dose end: 3 month
# rat [4] = settings: Combined chronic toxicity/carcinogenicity, sprague dawley, Oral, Feed, dose end: 28 month
# rat [5] = settings: Multigenerational reproductive toxicity study, sprague dawley, Oral, Feed, dose end: 2 generation
# mouse [6] = settings: Combined chronic toxicity/carcinogenicity, b6c3f1, Oral, Feed, dose end: 2 year
# mouse [7] = settings: Subchronic oral toxicity in rodents, cd1, Feed, dose end: 3 month, group: systemic
# dog [8] = settings: Subchronic oral toxicity in nonrodent, beagle, Feed, dose end: 13 week
# dog [9] = settings: Chronic toxicity, beagle, Oral, Feed, dose end: 12 month
# mouse [10] = settings: Subchronic oral toxicity in rodents, b6c3f1, Feed, dose end: 13 week, group: systemic, systemic / organ weight / liver / nos + systemic / pathology microscopic / liver / cellular alteration
# rat [11] = settings: Combined chronic toxicity/carcinogenicity, fischer, Oral, Feed, dose end: 2 year, group: systemic
# mouse [12] = settings: Carcinogenicity, b6c3f1, Oral, Feed, dose end: 2 year, group: systemic
# rat [13] = settings: Combined chronic toxicity/carcinogenicity; fischer; Oral; Feed; dose end: 2 year; group: systemic; systemic / pathology microscopic / liver / hypertrophy + systemic / in life observation / clinical signs / hematuria + systemic / pathology …
# rat [14] = settings: Subchronic oral toxicity in rodents, Feed, dose end: 90 day, group: systemic
# dog [15] = settings: Subchronic oral toxicity in nonrodent, beagle, Feed, dose end: 6 month, group: systemic
# dog [16] = settings: Chronic toxicity, beagle, Oral, Feed, dose end: 12 month, group: systemic
# rat [17] = settings: Subchronic oral toxicity in rodents, fischer, Feed, dose end: 13 week, group: systemic, systemic / organ weight / liver / nos + systemic / pathology microscopic / liver / [other] + systemic / organ weight / liver / relative to …
# rat [18] = settings: Sub-acute repeat dose toxicity, sprague dawley, Oral, Gavage/Intubation, dose end: 28 day, group: systemic
# rat [19] = settings: Multigenerational reproductive toxicity study, sprague dawley, Oral, Gavage/Intubation, dose end: 1 generation
# [20] = group: cholinesterase, cholinesterase / cholinesterase / cholinesterase / erythrocyte cholinesterase (che) + cholinesterase / cholinesterase / cholinesterase / …
# [21] = group: systemic, systemic / in life observation / clinical signs / pulse/pressure
# [22] = group: cholinesterase, cholinesterase / cholinesterase / cholinesterase / brain cholinesterase (che) + cholinesterase / cholinesterase / cholinesterase / …
# [23] = group: developmental, systemic / in life observation / body weight / fetal weight + developmental / developmental malformation / bone / delayed ossification + …
# [24] = group: maternal, reproductive / reproductive performance / postimplantation loss / postimplantation loss + reproductive / reproductive performance / …
# [25] = group: cholinesterase, cholinesterase / cholinesterase / cholinesterase / erythrocyte cholinesterase (che)
# [26] = group: systemic, systemic / clinical chemistry / albumin-globulin ratio / albumin-globulin ratio
# [27] = group: systemic, systemic / hematology / hemoglobin (hgb) / hemoglobin (hgb) + systemic / pathology microscopic / stomach / acanthosis + systemic / pathology…
# [28] = group: systemic, systemic / hematology / erythrocyte (rbc) count differential / erythrocyte (rbc) + systemic / hematology / hematocrit (hct) / hematocrit (…
# [29] = group: offspring, developmental / offspring survival late / viability index / viability index
# [30] = group: parental, systemic / in life observation / body weight / body weight gain
# [31] = group: systemic, systemic / clinical chemistry / cholesterol / cholesterol
# [32] = group: systemic, systemic / clinical chemistry / cholesterol / cholesterol + systemic / in life observation / body weight / body weight + systemic / in life …
# [33] = systemic / in life observation / body weight / body weight + systemic / organ weight / brain / relative to body weight + systemic / organ …
# [34] = group: cholinesterase, cholinesterase / cholinesterase / cholinesterase / plasma cholinesterase (che) + cholinesterase / cholinesterase / cholinesterase / …
# [35] = group: systemic, systemic / in life observation / body weight / body weight gain + systemic / in life observation / clinical signs / emaciation + systemic / …
# [36] = group: systemic, systemic / organ weight / liver / absolute
# [37] = systemic / in life observation / body weight / body weight + systemic / in life observation / mortality / mortality
# [38] = systemic / organ weight / kidney / nos + systemic / organ weight / kidney / relative to body weight
# [39] = systemic / organ weight / liver / nos + systemic / pathology microscopic / liver / [other]
# [40] = systemic / organ weight / liver / nos + systemic / pathology microscopic / liver / [other] + systemic / organ weight / kidney / nos
# [41] = systemic / organ weight / liver / absolute + systemic / organ weight / liver / relative to body weight
# [42] = systemic / organ weight / liver / absolute + systemic / organ weight / liver / relative to body weight + systemic / clinical chemistry / …
# [43] = systemic / organ weight / liver / relative to body weight + systemic / in life observation / body weight / body weight gain + systemic / …
# [44] = systemic / organ weight / liver / relative to body weight + systemic / clinical chemistry / bilirubin / total bilirubin + systemic / in life…
# [45] = group: offspring, systemic / in life observation / body weight / offspring (pup) weight
# [46] = group: parental, systemic / organ weight / heart / relative to body weight + systemic / organ weight / kidney / relative to body weight + systemic / organ …
# [47] = group: reproductive, reproductive / offspring survival early / birth index / live birth index
structure (smiles),measurement,setting,value
COP(=S)(OC)Oc1ccc([N+](=O)[O-])cc1 [Methyl parathion],LEL,dog [1]; [20],1 mg/kg/day
same,LOAEL,dog [1]; [20],1 mg/kg/day
same,NEL,dog [1]; [20],0.3 mg/kg/day
same,NOAEL,dog [1]; [20],0.3 mg/kg/day
same,LEL,dog [1]; [21],3 mg/kg/day
same,LOAEL,dog [1]; [21],3 mg/kg/day
same,NEL,dog [1]; [21],1 mg/kg/day
same,NOAEL,dog [1]; [21],1 mg/kg/day
same,LEL,rat [2]; [22],3 mg/kg/day
same,LOAEL,rat [2]; [22],> 3 mg/kg/day
same,NOAEL,rat [2]; [22],≥ 3 mg/kg/day
same,LOAEL,"rat [2]; group: developmental, systemic / in life observation / body weight / fetal weight",3 mg/kg/day
same,LEL,rat [2]; [23],3 mg/kg/day
same,NEL,rat [2]; [23],1 mg/kg/day
same,NOAEL,rat [2]; [23],1 mg/kg/day
same,LEL,rat [2]; [24],3 mg/kg/day
same,LOAEL,rat [2]; [24],3 mg/kg/day
same,NEL,rat [2]; [24],1 mg/kg/day
same,NOAEL,rat [2]; [24],1 mg/kg/day
same,LEL,rat [3]; [25],1.24 mg/kg/day
same,LOAEL,rat [3]; [25],1.24 mg/kg/day
same,NEL,rat [3]; [20],0.12 mg/kg/day
same,NOAEL,rat [3]; [20],0.12 mg/kg/day
same,LEL,rat [3]; [26],0.16 mg/kg/day
same,NEL,rat [3]; [26],< 0.16 mg/kg/day
same,LOAEL,rat [3]; [27],1.24 mg/kg/day
same,NOAEL,rat [3]; [27],0.12 mg/kg/day
same,LOAEL,rat [4]; [22],> 2.21 mg/kg/day
same,NEL,rat [4]; [22],0.02 mg/kg/day
same,NOAEL,rat [4]; [22],≥ 2.21 mg/kg/day
same,LEL,rat [4]; [25],0.21 mg/kg/day
same,LEL,rat [4]; [28],0.21 mg/kg/day
same,LOAEL,rat [4]; [28],0.21 mg/kg/day
same,NEL,rat [4]; [28],0.02 mg/kg/day
same,NOAEL,rat [4]; [28],0.02 mg/kg/day
same,LEL,rat [5]; [29],2 mg/kg/day
same,LOAEL,rat [5]; [29],2 mg/kg/day
same,NEL,rat [5]; [29],0.38 mg/kg/day
same,NOAEL,rat [5]; [29],0.38 mg/kg/day
same,LOAEL,rat [5]; [30],2.3 mg/kg/day
same,NEL,rat [5]; [30],0.44 mg/kg/day
same,NOAEL,rat [5]; [30],0.44 mg/kg/day
same,LEL,"rat [5]; group: parental, systemic / in life observation / body weight / body weight gain + systemic / in life observation / body weight / body weight",2.3 mg/kg/day
same,LEL,mouse [6]; [22],1.6 mg/kg/day
same,LOAEL,mouse [6]; [22],1.6 mg/kg/day
same,NEL,mouse [6]; [22],0.2 mg/kg/day
same,NOAEL,mouse [6]; [22],0.2 mg/kg/day
same,LEL,mouse [6]; [31],2.1 mg/kg/day
same,LOAEL,mouse [6]; [31],2.1 mg/kg/day
same,NEL,mouse [6]; [32],0.3 mg/kg/day
same,NOAEL,mouse [6]; [32],0.3 mg/kg/day
same,LOAEL,mouse [7]; systemic / in life observation / body weight / body weight,13.5 mg/kg/day
same,LEL,mouse [7]; [33],13.5 mg/kg/day
same,NEL,mouse [7]; [33],6.5 mg/kg/day
same,NOAEL,mouse [7]; [33],6.5 mg/kg/day
same,LEL,dog [8]; [34],3 mg/kg/day
same,LOAEL,dog [8]; [34],3 mg/kg/day
same,NEL,dog [8]; [34],0.3 mg/kg/day
same,NOAEL,dog [8]; [34],0.3 mg/kg/day
same,LOAEL,"dog [8]; group: systemic, systemic / in life observation / body weight / body weight gain",3 mg/kg/day
same,LEL,dog [8]; [35],3 mg/kg/day
same,NOAEL,dog [8]; [35],0.3 mg/kg/day
same,NEL,"dog [8]; group: systemic, systemic / in life observation / clinical signs / emaciation + systemic / in life observation / clinical signs / dehydration + systemic / in…",0.3 mg/kg/day
same,LEL,dog [9]; [20],0.03 mg/kg/day
same,LOAEL,dog [9]; [20],0.03 mg/kg/day
same,NEL,dog [9]; [20],< 0.03 mg/kg/day
same,NOAEL,dog [9]; [20],< 0.03 mg/kg/day
same,LEL,dog [9]; [36],0.3 mg/kg/day
same,LOAEL,dog [9]; [36],> 0.3 mg/kg/day
same,NEL,dog [9]; [36],0.1 mg/kg/day
same,NOAEL,dog [9]; [36],≥ 0.3 mg/kg/day
Nc1c(Cl)c(Cl)nc(C(=O)O)c1Cl [Picloram],LEL,mouse [10],1000 mg/kg/day
same,LOAEL,mouse [10],1000 mg/kg/day
same,NEL,mouse [10],< 1000 mg/kg/day
same,NOAEL,mouse [10],< 1000 mg/kg/day
same,LEL,rat [11]; [37],20 mg/kg/day
same,NEL,rat [11]; [37],< 20 mg/kg/day
same,NOAEL,rat [11]; systemic / in life observation / body weight / body weight + systemic / pathology microscopic / liver / hypertrophy + systemic / clinical …,20 mg/kg/day
same,LOAEL,rat [11]; systemic / pathology microscopic / liver / hypertrophy,60 mg/kg/day
same,LEL,mouse [12]; systemic / organ weight / kidney / nos,1000 mg/kg/day
same,LOAEL,mouse [12]; [38],> 1000 mg/kg/day
same,NEL,mouse [12]; [38],500 mg/kg/day
same,NOAEL,mouse [12]; [38],≥ 1000 mg/kg/day
same,LEL,rat [13],250 mg/kg/day
same,LOAEL,rat [13],250 mg/kg/day
same,NEL,rat [13],< 250 mg/kg/day
same,NOAEL,rat [13],< 250 mg/kg/day
same,LEL,rat [14]; [39],150 mg/kg/day
same,LOAEL,rat [14]; [39],150 mg/kg/day
same,NEL,rat [14]; [40],50 mg/kg/day
same,NOAEL,rat [14]; [40],50 mg/kg/day
same,LEL,dog [15]; [41],35 mg/kg/day
same,LOAEL,dog [15]; [41],35 mg/kg/day
same,NEL,dog [15]; [42],7 mg/kg/day
same,NOAEL,dog [15]; [42],7 mg/kg/day
same,NEL,dog [16]; systemic / organ weight / liver / relative to body weight + systemic / in life observation / body weight / body weight gain,35 mg/kg/day
same,LOAEL,dog [16]; [43],> 175 mg/kg/day
same,NOAEL,dog [16]; [43],≥ 175 mg/kg/day
same,LEL,dog [16]; systemic / organ weight / liver / relative to body weight + systemic / organ weight / liver / absolute,175 mg/kg/day
same,LEL,rat [17],150 mg/kg/day
same,LOAEL,rat [17],150 mg/kg/day
same,NEL,rat [17],50 mg/kg/day
same,NOAEL,rat [17],50 mg/kg/day
"O=[N+]([O-])c1ccc(O)c([N+](=O)[O-])c1 [2,4-Dinitrophenol]",LEL,rat [18]; systemic / clinical chemistry / bilirubin / total bilirubin,10 mg/kg/day
same,NEL,rat [18]; systemic / clinical chemistry / bilirubin / total bilirubin + systemic / in life observation / clinical signs / [other] + systemic / in life…,3 mg/kg/day
same,LOAEL,rat [18]; [44],> 80 mg/kg/day
same,NOAEL,rat [18]; [44],≥ 80 mg/kg/day
same,LEL,rat [19]; [45],30 mg/kg/day
same,LOAEL,rat [19]; [45],> 30 mg/kg/day
same,NEL,rat [19]; [45],10 mg/kg/day
same,NOAEL,rat [19]; [45],≥ 30 mg/kg/day
same,LEL,rat [19]; [46],30 mg/kg/day
same,LOAEL,rat [19]; [46],> 30 mg/kg/day
same,NEL,rat [19]; [46],10 mg/kg/day
same,NOAEL,rat [19]; [46],≥ 30 mg/kg/day
same,LEL,rat [19]; [47],30 mg/kg/day
same,LOAEL,rat [19]; [47],> 30 mg/kg/day
same,NEL,rat [19]; [47],10 mg/kg/day
same,NOAEL,rat [19]; [47],≥ 30 mg/kg/day

# Source: EPA's ToxRefDB 2
